According to patent EP4108244A1, “SS-LACTAM ANTIBIOTIC WITH SIGNIFICANT ACTIVITY AGAINST CANCER E.G. COLON MALIGNANCIES” (priority 2021, dated 2022):
Marks after values point to notes of the source that are not given here.

How the values were obtained:
DLD-1 cells [1] = assay: Cell cycle distribution, propidium iodide staining; format: cell-based, human; details: for accumulation of dead cells in the pre-G1 phase vs. control: CFT alone
Description: Propidium iodide (PI) staining was used to evaluate the effect of the different treatments on the cell cycle. […] 48 h and 72 h post-treatment, collected cells were fixed with ice-cold ethanol (70%) and stored at - 20 °C for at least 2 h. Fixed cells, which were washed with PBS and incubated at 37 °C for 1 h with 50 µl RNase (1 mg/ml) (Sigma Aldrich, Germany), were stained for 15 minutes with PI (Molecular Probes, Eugene, Oregon, USA). Cell cycle was monitored using BD FACSDiva™ and the percentage of cells in the different phases of the cell cycle (pre-Gi, G0/G1, S, and G2/M) phases was determined using BD FACSDiva™ Software.
Propidium iodide (PI) staining was used to evaluate the effect of the different treatments (Ceftazidime (100 µg/ml) or 5-Fluorouracil (16 µM)) on the cell cycle profile of DLD-1 cells. Briefly, DLD-1 cells were plated at 5^∗104/ml and treated for 48 h and 72 h. Collected cells were fixed with ice-cold ethanol (70%) and stored at -20°C for at least 2 h. Fixed cells, which were washed with PBS and incubated at 37°C for 1 h with 50 µl RNase (1 mg/ml) (Sigma Aldrich, Germany), were stained for 15 minutes with PI (Molecular Probes, Eugene, Oregon, USA). Cell cycle was monitored using BD FACSDiva™ and the percentage of cells in the different phases of the cell cycle (pre-Gi, G0/G1, S, and G2/M) phases was determined using BD FACSDiva™ Software.

HCT-116 cells [2] = assay: Caspase-3/7 activity assay; format: cell-based, human; details: combined with 5-FU 8 µM, 48 and 72h, CFT 100 µg/ml, CFP 50 µg/ml
Description: Caspase-3/7 activity was measured 48 h and 72 h post-treatment according to the manufacturer's protocol (Caspase-Glo-3/7 Assay, Promega Corp, Madison, WI, USA). Briefly, equal volume from treated cells and caspase-3/7 mixture were incubated at room temperature for 3 h and the luminescence was measured by a microplate reader.

DLD-1 cells [3] = assay: Antibiotics' uptake by the cells, LC-MS/MS; details: for Concentration of CFT, Lysate / Concentration of CFT, Supernatant: CFT 100 µg/ml alone or + 5-FU 16 µM
Description: (§1) This step was repeated three times and cell homogenate were vortexed at high-speed prior extraction. 40 µl from each supernatant and cell suspension were combined with 200 µl of internal standard working solution prepared in ice-cold methanol. Samples were then centrifuged and 100 µl of the supernatant were diluted with 400 µl water in glass vials prior analysis with LC-/MS/MS.

HCT-116 cells [4] = assay: Antibiotics' uptake by the cells, LC-MS/MS; details: for Concentration of CFT, Lysate / Concentration of CFT, Supernatant: CFT 100 µg/ml alone or + 5-FU 8 µM
Description: as §1

[5] = 48 h, CFT 100 µg/mL, CFP 50 µg/mL, 5-FU 16 µM, alone or combined, mean ± SE
[6] = 72 h, CFT 100 µg/mL, CFP 50 µg/mL, 5-FU 16 µM, alone or combined, mean ± SE

CC(C)(O/N=C(\C(=O)N[C@@H]1C(=O)N2C(C(=O)[O-])=C(C[n+]3ccccc3)CS[C@H]12)c1csc(N)n1)C(=O)O [CFT, (6R,7R)-7-[[(2Z)-2-(2-amino-1,3-thiazol-4-yl)-2-(2-carboxypropan-2-yloxyimino)acetyl]amino]-8-oxo-3-(pyridin-1-ium-1-ylmethyl)-5-thia-1-azabicyclo[4.2.0]oct-2-ene-2-carboxylate]
percentage of cells in G0/G1 (DLD-1 cells [1]; [5]): 52.6 ± 3.3% | percentage of cells in Pre G1 (DLD-1 cells [1]; [5]): 9.3 ± 2.5^(a) % | percentage of cells in S (DLD-1 cells [1]; [5]): 14.6 ± 3.2% | accumulation of dead cells in the pre-G1 phase vs. control (DLD-1 cells [1]; 48 h): 1.9 fold | percentage of cells in G0/G1 (DLD-1 cells [1]; [6]): 38.2 ± 4.3^(a) % | percentage of cells in G2/M (DLD-1 cells [1]; [6]): 12.0 ± 1.6^(a) % | percentage of cells in Pre G1 (DLD-1 cells [1]; [6]): 40.6 ± 5.2^(a) % | percentage of cells in S (DLD-1 cells [1]; [6]): 8.4 ± 0.6% | accumulation of dead cells in the pre-G1 phase vs. control (DLD-1 cells [1]; 72h): 9.4 fold | effect on 5-FU-induced apoptosis (caspase 3/7, in words) (HCT-116 cells [2]): antagonized 5-FU-induced apoptosis | Concentration of CFT, Lysate (DLD-1 cells [3]; 2 h): 0.024 ± 0.003 | Concentration of CFT, Supernatant (DLD-1 cells [3]; 2 h): 100.000 ± 2.970 | Concentration of CFT, Lysate (DLD-1 cells [3]; 4 h): 0.026 ± 0.002 | Concentration of CFT, Supernatant (DLD-1 cells [3]; 4 h): 97.073 ± 5.728 | Concentration of CFT, Lysate (DLD-1 cells [3]; 6 h): 0.033 ± 0.003 | Concentration of CFT, Supernatant (DLD-1 cells [3]; 6 h): 91.335 ± 7.637 | Concentration of CFT, Lysate (DLD-1 cells [3]; 8 h): 0.032 ± 0.001 | Concentration of CFT, Supernatant (DLD-1 cells [3]; 8 h): 98.126 ± 5.940 | average uptake by the cells (DLD-1 cells [3]; up to 8h): around 0.02% | uptake of CFT (DLD-1 cells [3]; up to 8 h, CFT 100 µg/ml): 0.019-0.025% | Concentration of CFT, Lysate (HCT-116 cells [4]; HCT-116 cells, 2 h): 0.047 ± 0.003 | Concentration of CFT, Supernatant (HCT-116 cells [4]; HCT-116 cells, 2 h): 96.900 ± 3.818 | Concentration of CFT, Lysate (HCT-116 cells [4]; HCT-116 cells, 4 h): 0.066 ± 0.012 | Concentration of CFT, Supernatant (HCT-116 cells [4]; HCT-116 cells, 4 h): 105.000 ± 4.168 | Concentration of CFT, Lysate (HCT-116 cells [4]; HCT-116 cells, 6 h): 0.056 ± 0.001 | Concentration of CFT, Supernatant (HCT-116 cells [4]; HCT-116 cells, 6 h): 96.750 ± 8.697 | Concentration of CFT, Lysate (HCT-116 cells [4]; HCT-116 cells, 8 h): 0.053 ± 0.010 | Concentration of CFT, Supernatant (HCT-116 cells [4]; HCT-116 cells, 8 h): 88.900 ± 8.326 | uptake of CFT (HCT-116 cells [4]; HCT-116 cells, up to 8 h, CFT 100 µg/ml): 0.047-0.066% | average uptake in HCT-116 cells compared to DLD-1 cells (HCT-116 cells [4]; up to 8h): 2 folds | uptake in HCT-116 cells compared to DLD-1 cells (HCT-116 cells [4]; up to 8 h, CFT 100 µg/ml): ~2.5 fold
